The test system of this data set is pregnant rats. Type of data set: in vivo, rat. As to conditions: for Mean Number of Pups / Day of Parturition: pregnant rats; for Day of Parturition: number of animals at day. Here is the method:
The test animals received 20 μ in two equal portions, of L-pGlu-L-His-L-Trp-L-Ser-L-Tyr-D-Leu-L-Leu-L-Arg-L-Pro-NH-ethyl as a 0.04 g/l solution in 0.9% aqueous sodium chloride containing 0.1% bovine serum albumin. In all instances, the subcutaneous injections were given on day 18 of gestation.
In a repetition of the procedure of Example 1, the same test was carried out except that the animals were injected on day 19 of gestation.

[1] abbreviates: same dose s.c. on day 19 of gestation.

Read-outs that look alike come from different tables or passages of the source.

On to `CCNC(=O)[C@@H]1CCCN1C(=O)[C@H](CCCNC(=N)N)NC(=O)[C@H](CC(C)C)NC(=O)[C@@H](CC(C)C)NC(=O)[C@H](Cc1ccc(O)cc1)NC(=O)[C@H](CO)NC(=O)[C@H](Cc1c[nH]c2ccccc12)NC(=O)[C@H](Cc1c[nH]cn1)NC(=O)[C@@H]1CCC(=O)N1` [Test compound, L-pGlu-L-His-L-Trp-L-Ser-L-Tyr-D-Leu-L-Leu-L-Arg-L-Pro-NH-ethyl], for which the “Mean Number of Pups” value (20 μ in two equal portions s.c. on day 18 of gestation) amounted to 8.7 and the “Mean Number of Pups” value under setting [1] is 9.3. In addition, the “Day of Parturition” value reads like this: (20 μ in two equal portions s.c. on day 18 of gestation, normal pregnancy 21.5 days) 1 at 21; 2 at 20; under setting [1], 3 at 21. Under “rat, in vivo”, the “Condition of pups delivered” value was “healthy and indistinguishable from the control animals' pups”. The “Parturition result at other dose levels” value (rats, half and two times the dose level of example 1, compared with Table I) was “essentially the same result as shown in Table I”.

Source of the values: patent US4018914A, “Parturition inducement” (Abbott Laboratories, priority 1975, dated 1977).
